Results: patent US20200030355A1, “COMBINATION THERAPY FOR TREATING CANCER” (Epizyme, Inc., priority 2014, published 2020)
“Also recorded” adds a separate entry of the source. Where two headings read alike, the source gives them in different places.

Key:
[1] = tested on: MOLM-13 (MLL-AF9); experiment: Combination proliferation study with Compound A2 (ATP/CellTiter-Glo, Chou-Talalay combination index); assay type: cell-based, human
Method in brief: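 Viability by CellTiter-Glo ATP luminescence; Fa relative to DMSO controls. Combination index by Chou-Talalay (CI<1 synergy, =1 additive, >1 antagonism).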

[2] = tested on: SKM-1 (non-MLL-rearranged AML); experiment: as above; assay type: cell-based, human
Method: (§1) Graphs representing values of combination index (CI) versus Fractional effect (Fa) known as Fa-CI plots were generated and synergy was evaluated.
as §1
(§2) The HP-D300 digital dispenser (Tecan) was used to dispense compounds in a combinatorial matrix. […] Cell viability was measured via ATP content using CellTiter-Glo® (Promega).
(§3) Viability was determined using CellTiter-Glo® (Promega).
MV4-11 cells were maintained in IMDM supplemented with 10% fetal bovine serum. MOLM-13 and SKM-1 cells were maintained in Roswell Park Memorial Institute medium (RPMI) supplemented with 10% fetal bovine serum. They were cultured in flasks or plates in a humidified 5% CO2 atmosphere.
Proliferation studies were performed using MOLM-13, MV4-11 and SKM-1 cell lines in vitro to evaluate the cancer cell killing effect of a combination of two agents together on cell growth. Initial proliferation studies were performed to determine the IC50 values of a given compound in each cell line. The cell counts were measured by ATP quantitation using the Promega Cell Titer Glo kit and luminescence values correspond to the amount of ATP in a given well.
Compounds evaluated for synergy in the co-treatment phase were tested in a range which was bracketed around the IC50's. The compounds were plated to a 96 well plate in a matrix format which includes increasing concentrations of each drug in the combination in a constant ratio, in addition to the effect of each compound alone in the study. Cells were seeded and grown in the log-linear phase for 3 or 7 days in the cotreatment phase. Maximum and minimum inhibition (DMSO alone) controls were used in each plate to calculate fraction affected (Fa) of a test well. DMSO concentration was kept at 0.1% v/v. The drug combination analysis was performed utilizing the Chou-Talalay method. Synergy was determined using the software package Calcusyn by Biosoft. The combination index (CI) is the term used to describe the level of synergy or antagonism in a given test system. A combination index less than one indicates synergy, and a CI greater than one indicates antagonism.
The drug combination analysis was performed using the Chou-Talalay method. Graphs representing values of combination index (CI) versus Fractional effect (Fa) known as Fa-CI plots were generated and synergy was evaluated.

[3] = tested on: KOPM-88 (MLL-PTD); experiment: Combination proliferation study with Compound A2; assay type: cell-based, human
Method: as §2, §3

[4] = tested on: EOL-1 (MLL-PTD); experiment: Combination proliferation study with Compound A2; assay type: cell-based, human
Method: as §2, §3

[5] = tested on: MOLM-13 cells; experiment: Apoptosis by Annexin V flow cytometry (Guava Nexin); assay type: cell-based, human
Method: (§4) A Guava EasyCyte HT™ flow cytometer was used to measure DNA content, Annexin V staining and cell surface expression of CD14 and CD11b markers on Days 10 and 14.
(§5) On Day 0 MOLM-13 cells are seeded at 3,000 cells/mL. On Day 7 and Day 10 MOLM-13 cells are counted and reseeded at 50,000 cells/mL. […] On Day 10 They were redosed again. On Day 14 the experiment was terminated. Cells were sampled for CD14 and CD11b analysis on Days 7, 10 and 14.
(§6) To evaluate the fraction of cells in each cell cycle, flow cytometric analysis was performed. FACS analysis for detection of cell death by apoptosis, and cell cycle was performed.
(§7) Cells were harvested on days 7, 10 and 14 and split to allow simultaneous analysis of cell cycle and Annexin V staining. Apoptosis was determined using the Guava Nexin Assay (Millipore 4500-0450) and cells were prepared according to the manufacturer's recommendations. Samples were analyzed using the Guava EasyCyte Plus System (Millipore). Cells for cell cycle analysis were pelleted by centrifugation at 200×g for 5 minutes at 4° C., washed twice with ice cold PBS then fixed with 70% ice cold ethanol. All samples were analyzed together at end of experiment. Following fixation cells were washed with PBS and stained with the Guava cell cycle reagent (Millipore 4500-0220) for 30 minutes. Samples were analyzed using the Guava EasyCyte Plus System (Millipore).

[6] = tested on: MOLM-13 cells; experiment: Cell cycle / sub-G1 flow cytometry; assay type: cell-based, human; settings: 156 nM Compound A2 plus 63 nM Ara-C, 10 and 14 days
Method: as §4, §5, §6, §7

[7] = tested on: MV4-11 (MLL-AF4); experiment: Combination proliferation study with Compound A2 (ATP/CellTiter-Glo, Chou-Talalay combination index); assay type: cell-based, human; settings: for Combination with Compound A2, MV4-111 MLL-AF4: Table 2, Example 3
[8] = tested on: MOLM-13 cells; experiment: CD11b and CD14 differentiation marker expression by flow cytometry; assay type: cell-based, human; settings: single agents
Method: as §4, §5
On day 7, 10, and 14, cells were collected for analysis. The cells were prepared by washing twice in PBS, followed by fixation in 4% formaldehyde for ten minutes at 37° C. After fixation cells were washed and blocked with blocking buffer for 10 minutes at room temperature. Cells were then incubated in presence of anti-CD14, anti-CD11b or anti-IgG antibody for 1 hour at room temperature while rotating. Cells were washed, re-suspended in PBS and 5,000 events were analyzed using ExpressPro software on the GuavaCyte Plus System.

[9] = tested on: ML-2 (MLL-AF6); experiment: EPZ-5676 7-day pre-treatment, then second compound 72 hours, growth inhibition GI100 shift (Example 7); assay type: cell-based
Method: (§8) Cells were then equilibrated in incubators for 24 hours before treatment with a second compound. Treated assay plates were incubated with a second compound for 72 hours. After this time, plates were developed for endpoint analysis using ATPLite to measure ATP content, which is used as an indicator of cell viability.
(§9) Cells were then treated with a second compound for 72 hours. After this time, plates were developed for endpoint analysis using Cell Titer Glo to measure ATP content, which is used as an indicator of cell viability.
(§10) “N/D” means the GI100 of the second compound could not be determined for both conditions and “-” means not tested.
(§11) Growth Inhibition (GI) as a measure of cell viability: The cell viability of vehicle was measured at the time of dosing the second agent (T0) and after seventy-two hours (T72). […] A GI 200% represents complete death of all cells in the culture well. Compounds reaching an activity plateau of GI 200% are considered cytotoxic. GI is calculated by applying the following test and equation: […]
(§12) where T is the signal measure for a test article, V is the vehicle-treated control measure, and V0 is the vehicle control measure at time zero.

[10] = tested on: OCI-AML-4 (MLL-ENL); experiment: EPZ-5676 7-day pre-treatment, then second compound 72 hours, growth inhibition GI100 shift; primary screen and retest (Example 7); assay type: cell-based
Method: as §8, §9, §10, §11, §12

[11] = tested on: MOLM-13 (MLL-AF9); experiment: as above; assay type: cell-based, human
Method: as §8, §9, §10, §11, §12

[12] = tested on: SKM-1 (non-MLLr); experiment: as above; assay type: cell-based, human; settings: 300 nM EPZ-5676 7-day pre-treatment
Method: as §8, §9, §10, §11, §12

[13] = 7 Day Cotreatment Model, Table 4
[14] = Table 2, Example 3, listed as cytarabine
[15] = 300 nM EPZ-5676 7-day pre-treatment, second compound 72 hours, ATPLite

SMILES: Nc1ccn([C@@H]2O[C@H](CO)[C@@H](O)[C@@H]2O)c(=O)n1 [Ara-C, cytarabine]
- Combination of Compound A2 and anti-cancer agent, MOLM-13 ([1]; 4 + 3 Model: Compound A2 pretreatment 4 days, then co-treatment 3 days): Synergy (A combination index less than one indicates synergy)
- Combination of Compound A2 and anti-cancer agent, MOLM-13 ([1]; 7 Day Cotreatment): Synergy (A combination index less than one indicates synergy)
- Combination with Compound A2, MOLM-13 (MLL-AF9) [1, 13]: Strong Synergy
- Combination with Compound A2, reverse order of addition ([1]; MOLM-13, Ara-C 3 days, then cotreatment with Compound A2 7 days): Synergy
- Combination with Compound A2, reverse order of addition with Ara-C washout ([1]; MOLM-13, Ara-C 3 days, washed out, then Compound A2 7 days): Combination benefit is maintained
- Combination with Compound A2 when Compound A2 is washed out prior to the addition of the second agent ([1]; MOLM-13, pre-treatment model with Compound A2 washout): durable combination benefit; also recorded: synergistic anti-proliferative activity was maintained
- Combination with Compound A2, MOLM-13 (MLL-AF9) ([1]; Table 2, Example 3): Synergy (Drug synergy was statistically defined by CI values less than 1)
- Combination with Compound A2, MOLM-13 (MLL-AF9) [1, 14]: synergistically
- Effect of Compound A2 on the antiproliferative activity of the second agent ([2]; SKM-1, non-MLL-rearranged, Example 5): did not affect
- Combination with Compound A2, SKM-1 AML: Non-rearranged [2, 14]: did not act synergistically
- Combination with Compound A2, KOPM-88 (MLL-PTD) ([3]; Table 3, Example 3): Synergy (Drug synergy was statistically defined by CI values less than 1)
- Combination with Compound A2, EOL-1 (MLL-PTD) ([4]; Table 3, Example 3): Synergy (Drug synergy was statistically defined by CI values less than 1)
- Apoptosis, combination with Compound A2 ([5]; 156 nM Compound A2 plus 63 nM Ara-C): enhance apoptosis
- Induction of apoptosis, single agent ([5]; 14 day treatment, 156 nM Compound A2 or 63 nM Ara-C): modest increase in apoptotic cell population
- sub-G1 cell population, combination with Compound A2 [6]: significant increase in the population of sub-G1 cells
- Combination of Compound A2 and anti-cancer agent, MV4-11 ([7]; 7 Day Cotreatment): Synergy (A combination index less than one indicates synergy)
- Combination with Compound A2 when Compound A2 is washed out prior to the addition of the second agent ([7]; MV4-11, pre-treatment model with Compound A2 washout): synergistic anti-proliferative activity was maintained
- Combination with Compound A2, MV4-111 MLL-AF4 [7]: Strong Synergy
- Combination with Compound A2, MV4-111 MLL-AF4 ([7]; listed as cytarabine): synergistically

SMILES: COc1cccc2c1C(=O)c1c(O)c3c(c(O)c1C2=O)C[C@@](O)(C(C)=O)C[C@@H]3O[C@H]1C[C@H](N)[C@H](O)[C@H](C)O1 [Daunorubicin]
- Combination with Compound A2, MOLM-13 (MLL-AF9) [1]: Synergy (key: Synergy: Drug synergy was statistically defined by CI values less than 1; Antagonistic: antagonism by CI>1; Additive: additive effect by CI equal to 1)
- Combination with Compound A2 when Compound A2 is washed out prior to the addition of the second agent [1]: synergistic anti-proliferative activity was maintained
- Combination with Compound A2, SKM-1 AML: Non-rearranged [2]: did not act synergistically
- Effect of Compound A2 on the antiproliferative activity of the second agent [2]: did not affect
- Combination with Compound A2, KOPM-88 (MLL-PTD) [3]: Synergy (key: Synergy: Drug synergy was statistically defined by CI values less than 1; Antagonistic: antagonism by CI>1; Additive: additive effect by CI equal to 1)
- Combination with Compound A2, EOL-1 (MLL-PTD) [4]: Synergy (key: Synergy: Drug synergy was statistically defined by CI values less than 1; Antagonistic: antagonism by CI>1; Additive: additive effect by CI equal to 1)
- Differentiation markers CD11b and CD14 [8]: The same effect was observed
- Combination with Compound A2 when Compound A2 is washed out prior to the addition of the second agent [7]: synergistic anti-proliferative activity was maintained

SMILES: CC(=O)Nc1cccc(-n2c(=O)n(C3CC3)c(=O)c3c(Nc4ccc(I)cc4F)n(C)c(=O)c(C)c32)c1 [Trametinib]
- Combination with Compound A2, MOLM-13 (MLL-AF9) [1, 13]: Synergy (Drug synergy was statistically defined by CI values less than 1)
- GI100 [9]: 0.001
- GI100 [10]: 0.009
- Combination with EPZ-5676, OCI-AML-4 (MLL-ENL) Primary screen [10, 15]: Synergy (considered synergistic if the GI100 (Growth inhibition 100) value of the second compound decreased by 2-fold or more when EPZ-5676 was added as compared to the DMSO control)
- Combination with EPZ-5676, OCI-AML-4 (MLL-ENL) Retest ([10]; 300 nM EPZ-5676 7-day pre-treatment, second compound 72 hours, Cell Titer Glo): Synergy (considered synergistic if the GI100 (Growth inhibition 100) value of the second compound decreased by 2-fold or more when EPZ-5676 was added as compared to the DMSO control)
- GI100 [11]: 0.03
- Combination with EPZ-5676, MOLM-13 (MLL-AF9) Retest ([11]; 150 nM EPZ-5676 7-day pre-treatment, second compound 72 hours, Cell Titer Glo): Synergy (considered synergistic if the GI100 (Growth inhibition 100) value of the second compound decreased by 2-fold or more when EPZ-5676 was added as compared to the DMSO control)
- Combination with EPZ-5676, MOLM-13 (MLL-AF9) Primary screen [11, 15]: Synergy (considered synergistic if the GI100 (Growth inhibition 100) value of the second compound decreased by 2-fold or more when EPZ-5676 was added as compared to the DMSO control)
- Combination with EPZ-5676, SKM-1 (non-MLLr) Primary screen ([12]; ATPLite): Synergy (considered synergistic if the GI100 (Growth inhibition 100) value of the second compound decreased by 2-fold or more when EPZ-5676 was added as compared to the DMSO control)
- Combination with EPZ-5676, SKM-1 (non-MLLr) Retest ([12]; Cell Titer Glo): Synergy (considered synergistic if the GI100 (Growth inhibition 100) value of the second compound decreased by 2-fold or more when EPZ-5676 was added as compared to the DMSO control)
